In brackets after ≈: the same amount, converted by molar mass.

One series can be described thus: physchem. The following applies: pH 5.6.
The test system of the next series is CLas. Format: in vivo, Candidatus Liberibacter asiaticus. The following applies: CLas-infected citron leaves, petioles soaked with 200 ng in buffer; D. citri nymphs 21 days; versus buffer control.

For the molecule `CC[C@H](C)[C@H](NC(=O)[C@H](CC(=O)O)NC(=O)[C@H](Cc1ccccc1)NC(C)=O)C(=O)N[C@@H](CCSC)C(=O)NCC(=O)N[C@@H](CC(C)C)C(=O)N[C@H](C(=O)N[C@@H](CCCCN)C(=O)N[C@@H](CCCCN)C(=O)N[C@H](C(=O)N[C@@H](C)C(=O)NCC(=O)N[C@@H](C)C(=O)N[C@@H](CC(C)C)C(N)=O)C(C)C)[C@@H](C)CC` [EMP-ER, FDIMGLIKKVAGAL], the MIC – broadly, the smallest concentration in the dilution series that meets the test's criterion for growth inhibition – against L. crescens BT-1 was 200 µg/mL (≈ 0.132 mM). Further, in the series “physchem”, the solubility (usually the concentration that dissolves in the medium under given conditions) was at least 10 mg/mL.

Regarding “Ac-FDVMGIIKKIAGAL-NH2 [EMP-EF, FDVMGIIKKIAGAL]”, in the series on L. crescens BT-1, the MIC was found to be 200 µg/mL. In “physchem”, the solubility was below 5 mg/mL.

Turning to “Ac-GRILSFIKGLAEHL-NH2 [EMP-OD, GRILSFIKGLAEHL]”, in the series on L. crescens BT-1, the MIC amounted to 400 µg/mL. In “physchem”, this molecule registered a solubility above 20 mg/mL.

In the series on L. crescens BT-1, “Ac-IDWLKLGKMVMDVL-NH2 [Venom_protein_13b, IDWLKLGKMVMDVL]” came in with an MIC of 200 µg/mL. Moreover, the solubility in “physchem” is below 5 mg/mL.

The molecule “Ac-INLKAIAAFAKKLL-NH2 [Mastoparan-T, INLKAIAAFAKKLL]” had an MIC against L. crescens BT-1 of 200 µg/mL. Besides, in the series “physchem”, the solubility is above 20 mg/mL.

In the series with L. crescens BT-1, “Ac-INLKAIAALARNY-NH2 [Mastoparan-VT7, INLKAIAALARNY]” gave an MIC above 200 µg/mL. The solubility in “physchem” is below 5 mg/mL.

In the series on L. crescens BT-1, Ac-INLKAIAALVKKLL-NH2 [Mastoparan-VT6] came in with an MIC of 100 µg/mL. In “physchem”, this molecule displayed a solubility above 20 mg/mL.

In turn, “Ac-INLKAIAAMAKKLL-NH2 [Mastoparan-like_12d, INLKAIAAMAKKLL]” had an MIC against L. crescens BT-1 of 400 µg/mL. This molecule also showed a solubility in “physchem” above 20 mg/mL.

With “Ac-INLKAIAPLAKKLL-NH2 [Mastoparan-VT4, INLKAIAPLAKKLL]”, in “physchem”, the solubility was above 20 mg/mL.

In the series on L. crescens BT-1, “Ac-INLKAITALAKKLL-NH2 [Mastoparan-VT3, INLKAITALAKKLL]” showed an MIC of 400 µg/mL. The same molecule gave a solubility in the series “physchem” of at least 10 mg/mL.

For “Ac-INLLKIAKGIIKSL-NH2 [EMP-AF, INLLKIAKGIIKSL]”, in the series with L. crescens BT-1, the MIC turned out to be 1000 µg/mL. For the same molecule, the solubility in the series “physchem” was above 20 mg/mL.

“Ac-INMKASAAVAKKLL-NH2 [MP-VB1t, INMKASAAVAKKLL]” showed a minimum inhibitory concentration (MIC) with L. crescens BT-1 above 1000 µg/mL. Also, the solubility in the series “physchem” is above 20 mg/mL.

In the series with L. crescens BT-1, “Ac-INWKGIAAMAKKLL-NH2 [Mastoparan-X, INWKGIAAMAKKLL]” gave an MIC of 1000 µg/mL. In addition, the solubility in “physchem” is above 20 mg/mL.

Take “Ac-INWKGIAAMKKLL-NH2 [Mastoparan-like_12b, INWKGIAAMKKLL]”: the MIC in the series on L. crescens BT-1 was above 1000 µg/mL. Further, the solubility in “physchem” was above 20 mg/mL.

For the molecule “Ac-INWKKIASIGKEVLKAL-NH2 [PMM, INWKKIASIGKEVLKAL]”, the MIC with L. crescens BT-1 came to 200 µg/mL. In the series “physchem”, this molecule came in with a solubility above 20 mg/mL.

On to “Ac-INWKKIFEKVKNLV-NH2 [PDD-A, INWKKIFEKVKNLV]”, for which the MIC against L. crescens BT-1 came out at 200 µg/mL. The molecule further displayed a solubility in “physchem” above 20 mg/mL.

For “Ac-INWKKIKSIIKAAMN-NH2 [Mastoparan-V1, INWKKIKSIIKAAMN]”, the minimal inhibitory concentration (MIC) in the series on L. crescens BT-1 came to 400 µg/mL. Moreover, in the series “physchem”, the solubility was above 20 mg/mL.

In the series on L. crescens BT-1, “Ac-INWKKIKSLIKAAMS-NH2 [Mastoparan-V2, INWKKIKSLIKAAMS]” gave an MIC of 200 µg/mL. Moreover, in “physchem”, the solubility was above 20 mg/mL.

“Ac-INWKKMAATALKMI-NH2 [Parapolybia-MP, INWKKMAATALKMI]”: in the series on L. crescens BT-1, the MIC was above 1000 µg/mL. This molecule yielded a solubility in the series “physchem” above 20 mg/mL.

Turning to “Ac-INWLKLGKKILGAI-NH2 [Mastoparan-R1, INWLKLGKKILGAI]”, the MIC with L. crescens BT-1 turned out to be 200 µg/mL. The solubility in the series “physchem” was above 20 mg/mL.

In the series with L. crescens BT-1, “Ac-INWLKLGKKILGAL-NH2 [PDD-B, INWLKLGKKILGAL]” had an MIC of 1000 µg/mL. The molecule also came in with a solubility in the series “physchem” above 20 mg/mL.

In the series on L. crescens BT-1, “Ac-INWLKLGKKMMSAL-NH2 [MP, INWLKLGKKMMSAL]” gave an MIC of 1000 µg/mL. The solubility in “physchem” was above 20 mg/mL.

Take “Ac-INWLKLGKMVIDAL-NH2 [Polybia-MPII, INWLKLGKMVIDAL]”: the MIC in the series on L. crescens BT-1 was 400 µg/mL. In the series “physchem”, the solubility was above 20 mg/mL.

With “Ac-INWLKLGKQILGAL-NH2 [Mastoparan-R3, INWLKLGKQILGAL]”, the MIC in the series with L. crescens BT-1 worked out at 400 µg/mL. In “physchem”, this molecule displayed a solubility above 20 mg/mL.

In the series with L. crescens BT-1, “Ac-LKLLGIVKKVLGAI-NH2 [EMP-EM2, LKLLGIVKKVLGAI]” displayed an MIC of 200 µg/mL. Besides, the solubility in the series “physchem” is below 5 mg/mL.

Turning to “Ac-LKLMGIVKKVLGAL-NH2 [EMP-EM1, LKLMGIVKKVLGAL]”, the minimal inhibitory concentration (MIC) with L. crescens BT-1 came to 200 µg/mL. Further, in the series “physchem”, the solubility was at least 10 mg/mL.

On to “Ac-LNFKALAALAKKIL-NH2 [Mastoparan-R2, LNFKALAALAKKIL]”, for which the MIC in the series with L. crescens BT-1 was determined as 200 µg/mL. The molecule also yielded a solubility in “physchem” above 20 mg/mL.

For “Ac-NLKAIAALAKKLL-NH2 [Mastoparan-VT2, NLKAIAALAKKLL]”, the MIC in the series with L. crescens BT-1 amounted to 400 µg/mL. In “physchem”, this molecule displayed a solubility above 20 mg/mL.

Consider “Ac-VIVKAIATLSKKLL-NH2 [Mastoparan-VT5, VIVKAIATLSKKLL]”, for which, in the series on L. crescens BT-1, the MIC was above 1000 µg/mL. The molecule also registered a solubility in the series “physchem” above 20 mg/mL.

Regarding polymyxin B [PMB, reference compound], the “ability of bacteria in treated leaves to infect psyllid nymphs (CLas abundance in adult psyllids, FIG. 4)” value in the series with CLas was “less able to infect the psyllid nymphs”.

The values are drawn from US20260053146A1 (priority 2024, published 2026).
